Experimental data taken from US20120177693A1, “DEEP LUNG PULMONARY DELIVERY OF TREPROSTINIL” (Aradigm Corporation, priority 2008, published 2012).

What was measured:
[1] = Venous plasma pharmacokinetics of inhaled treprostinil via AERx Essence or Nebu-Tec Optineb, 14 healthy male subjects; details: for Dose-normalised AUCI / Dose-normalised AUCT / Dose-normalised Cmax: dose-normalised for the calculated dose to lung (μg); for AUCINF_obs_D (dose normalised AUCI) / AUClast_D (dose normalised AUCT) / Cmax_D (dose normalised Cmax): normalised for dose to lung
Procedure: On each of two dosing days, eligible subjects underwent dosing with ^99mTc-labeled treprostinil sodium using either the AERx Essence System or the Nebu-Tec Optineb nebulizer. Following their initial study dose, subjects underwent a washout period of approximately 48 hours before completing a second (crossover) study dose.
Immediately following each study dose, subjects underwent gamma scintigraphy and multiple samplings of venous blood to characterize treprostinil lung deposition and plasma pharmacokinetics.
To evaluate treprostinil plasma pharmacokinetics, 16 venous blood samples were drawn into 7.5 ml Potassium EDTA monovette tubes following each study dose (i.e., Essence and Optineb). Sampling occurred approximately 1 hour prior to dosing and at +2, +3, +5, +7, +10, +15, +20, +30, +60, +90, +120, +180, +240, +300, and +360 minutes after the start of each study dose. Thus, a total of 32 blood samples (˜250 mL) were collected for pharmacokinetic assessment over the two dosing days. Immediately upon sampling the sample was identified with a bar coded label bearing details of study number, subject number, sampling time point, sample type and a unique 9 digit identification number. The sample was separated by centrifugation at 1500×g and 4° C. for 10 minutes. Two equal aliquots of plasma/serum were transferred to 2 polypropylene tubes labelled identically to the original blood sample and stored at approximately −20° C. pending analysis. The time at which samples were taken, received into the separating room and placed in the freezer was recorded in the study documentation.
The pharmacokinetic parameters Cmax, AUCT and AUCI were normalised for the dose delivered to the lung, as determined from the scintigraphy data (Tables 14.2.1.5 & 14.2.1.6).

[2] = Safety and tolerability of inhaled treprostinil sodium (adverse events, laboratory, vital signs, ECG, spirometry), 14 healthy male subjects
[3] = dose-normalised for the calculated dose to lung
[4] = via Nebu-Tec, Geometric LS means

Structure (SMILES): CCCCC[C@H](O)CC[C@@H]1[C@H]2Cc3cccc(OCC(=O)[O-])c3C[C@H]2C[C@H]1O.[Na+] [treprostinil, (1R,2R,3aS,9aS)-[[2,3,3a,4,9,9a-Hexahydro-2-hydroxyl-1-[(3S)-3-hydroxyoctyl]-1H-benz[f]inden-5-yl]oxy]acetic acid monosodium salt]
- Tmax, Median Diff. AERx vs Nebu-Tec ([1]; Wilcoxon Matched Pairs Test): 11.5 min
- Dose-normalised AUCI, AERx/Nebu-Tec Ratio of geometric LS means [1, 3]: 101.79%
- Dose-normalised AUCT, AERx/Nebu-Tec Ratio of geometric LS means [1, 3]: 103.24%
- Dose-normalised Cmax, AERx/Nebu-Tec Ratio of geometric LS means ([1]; dose-normalised for the calculated dose to lung, monosodium salt): 61.51%
- Tmax ([1]; human, plasma, inhaled, Tmax, one subject in the nebulizer arm with delayed Tmax): ~20 min
- AUC ([1]; male, human, plasma, inhaled, 19.58 μg): 0.53 ng·h/mL
- AUC(0-inf) ([1]; male, human, plasma, inhaled, 19.58 μg, AUCINF—obs, via Optineb, GM): 0.533 ng·h/mL
- AUC(0-inf) ([1]; male, human, plasma, inhaled, 19.58 μg, AUCINF—obs, via Optineb, Median): 0.546 ng·h/mL
- AUC(0-t) ([1]; male, human, plasma, inhaled, 19.58 μg, AUCT, via Nebu-Tec, Geometric LS means): 0.51 ng·h/mL
- AUC(0-t) ([1]; male, human, plasma, inhaled, 19.58 μg, AUClast, via Optineb, GM): 0.51 ng·h/mL
- AUC(0-t) ([1]; male, human, plasma, inhaled, 19.58 μg, AUClast, via Optineb, Median): 0.531 ng·h/mL
- Cmax ([1]; male, human, plasma, inhaled, 19.58 μg, Cmax, via Nebu-Tec, Geometric LS means): 0.71 ng/mL
- Cmax ([1]; male, human, plasma, inhaled, 19.58 μg, Cmax, via Optineb, GM (geometric mean)): 0.707 ng/mL
- Cmax ([1]; male, human, plasma, inhaled, 19.58 μg, Cmax, via Optineb, Median): 0.696 ng/mL
- half-life ([1]; male, human, plasma, inhaled, 19.58 μg, T1/2, via Optineb, GM): 38.5 min
- half-life ([1]; male, human, plasma, inhaled, 19.58 μg, T1/2, via Optineb, Median): 37.3 min
- Tmax ([1]; male, human, plasma, inhaled, 19.58 μg, Tmax, via Nebu-Tec, Median): 8.5 min
- Tmax ([1]; male, human, plasma, inhaled, 19.58 μg, Tmax, via Optineb, Median): 8.52 min
- AUC(0-inf) ([1]; male, human, plasma, inhaled, 26 μg, AUCINF—obs, via AERx, GM): 0.731 ng·h/mL
- AUC(0-inf) ([1]; male, human, plasma, inhaled, 26 μg, AUCINF—obs, via AERx, Median): 0.767 ng·h/mL
- AUC(0-t) ([1]; male, human, plasma, inhaled, 26 μg, AUClast, via AERx, GM): 0.709 ng·h/mL
- AUC(0-t) ([1]; male, human, plasma, inhaled, 26 μg, AUClast, via AERx, Median): 0.749 ng·h/mL
- Cmax ([1]; male, human, plasma, inhaled, 26 μg, Cmax, via AERx, GM (geometric mean)): 0.586 ng/mL
- Cmax ([1]; male, human, plasma, inhaled, 26 μg, Cmax, via AERx, Median): 0.548 ng/mL
- half-life ([1]; male, human, plasma, inhaled, 26 μg, T1/2, via AERx, GM): 46.3 min
- half-life ([1]; male, human, plasma, inhaled, 26 μg, T1/2, via AERx, Median): 43.6 min
- Tmax ([1]; male, human, plasma, inhaled, 26 μg, Tmax, via AERx, Median): 25 min
- AUC ([1]; male, human, plasma, inhaled, 26.07 μg): 0.73 ng·h/mL
- AUC(0-t) ([1]; male, human, plasma, inhaled, 26.07 μg, AUCT, via AERx, Geometric LS means): 0.71 ng·h/mL
- Cmax ([1]; male, human, plasma, inhaled, 26.07 μg, Cmax, via AERx, Geometric LS means): 0.59 ng/mL
- Tmax ([1]; male, human, plasma, inhaled, 26.07 μg, Tmax, via AERx, Median): 25 min
- Vd/F ([1]; male, human, plasma, inhaled, 2 AERx strips): 44 L
- AUC(0-inf) ([1]; male, human, plasma, inhaled, 2 AERx strips, AUCINF—obs (AUCI), via AERx, Mean): 0.762 ng·h/mL
- AUC(0-t) ([1]; male, human, plasma, inhaled, 2 AERx strips, AUClast (AUCT), via AERx, Mean): 0.742 ng·h/mL
- Cmax ([1]; male, human, plasma, inhaled, 2 AERx strips, Cmax, via AERx, Mean): 0.64 ng/mL
- half-life ([1]; male, human, plasma, inhaled, 2 AERx strips, T1/2 (elimination half life), via AERx, Mean): 52.2 min
- Tmax ([1]; male, human, plasma, inhaled, 2 AERx strips, Tmax, via AERx, Mean): 20.6 min
- Vd/F ([1]; male, human, plasma, inhaled, 6 puffs): 36 L
- AUC(0-inf) ([1]; male, human, plasma, inhaled, 6 puffs, AUCINF—obs (AUCI), via Optineb, Mean): 0.553 ng·h/mL
- AUC(0-t) ([1]; male, human, plasma, inhaled, 6 puffs, AUClast (AUCT), via Optineb, Mean): 0.531 ng·h/mL
- Cmax ([1]; male, human, plasma, inhaled, 6 puffs, Cmax, via Optineb, Mean): 0.762 ng/mL
- half-life ([1]; male, human, plasma, inhaled, 6 puffs, T1/2 (elimination half life), via Optineb, Mean): 40.1 min
- Tmax ([1]; male, human, plasma, inhaled, 6 puffs, Tmax, via Optineb, Mean): 8.94 min
- Tmax ([1]; male, human, plasma, inhaled, TMAX, via AERx Essence System, mean): 21 min
- Tmax ([1]; male, human, plasma, inhaled, TMAX, via nebulizer (Nebu-Tec OPTINEB), mean): 9 min
- AUCI, AERx/Nebu-Tec Ratio of geometric LS means ([1]; not dose adjusted): 137.15%
- AUCT, AERx/Nebu-Tec Ratio of geometric LS means ([1]; not dose adjusted): 139.11%
- Cmax, AERx/Nebu-Tec Ratio of geometric LS means ([1]; not dose adjusted): 82.88%
- Cmax_D ([1]; via AERx, GM): 0.023 ng/mL/µg
- Vz_F_obs ([1]; via AERx, GM): 38614.996 mL
- Dose-normalised AUCI ([1]; via AERx, Geometric LS means): 0.029 ng·h/mL
- Dose-normalised AUCT ([1]; via AERx, Geometric LS means): 0.028 ng·h/mL
- Dose-normalised Cmax ([1]; via AERx, Geometric LS means): 0.023 ng/mL
- AUCINF—obs ([1]; via AERx, Max): 1.205 ng·h/mL
- AUClast ([1]; via AERx, Max): 1.196 ng·h/mL
- Cmax ([1]; via AERx, Max): 1.347 ng/mL
- Cmax_D ([1]; via AERx, Max): 0.044 ng/mL/µg
- T1/2 ([1]; via AERx, Max): 163.9 min
- Tmax ([1]; via AERx, Max): 30 min
- Vz_F_obs ([1]; via AERx, Max): 133550.416 mL
- AUCINF_obs_D (dose normalised AUCI) ([1]; via AERx, Mean): 0.029 ng·h/mL/µg
- AUClast_D (dose normalised AUCT) ([1]; via AERx, Mean): 0.028 ng·h/mL/µg
- Cmax_D (dose normalised Cmax) ([1]; via AERx, Mean): 0.024 ng/mL/µg
- Cmax_D ([1]; via AERx, Median): 0.022 ng/mL/µg
- Vz_F_obs ([1]; via AERx, Median): 34319.392 mL
- AUCINF—obs ([1]; via AERx, Min): 0.407 ng·h/mL
- AUClast ([1]; via AERx, Min): 0.375 ng·h/mL
- Cmax ([1]; via AERx, Min): 0.299 ng/mL
- Cmax_D ([1]; via AERx, Min): 0.016 ng/mL/µg
- T1/2 ([1]; via AERx, Min): 28.3 min
- Tmax ([1]; via AERx, Min): 7.02 min
- Vz_F_obs ([1]; via AERx, Min): 21692.705 mL
- Dose-normalised AUCI [1, 4]: 0.028 ng·h/mL
- Dose-normalised AUCT [1, 4]: 0.027 ng·h/mL
- Dose-normalised Cmax [1, 4]: 0.037 ng/mL
- Cmax_D ([1]; via Optineb, GM): 0.037 ng/mL/µg
- Vz_F_obs ([1]; via Optineb, GM): 32721.114 mL
- AUCINF—obs ([1]; via Optineb, Max): 0.852 ng·h/mL
- AUClast ([1]; via Optineb, Max): 0.816 ng·h/mL
- Cmax ([1]; via Optineb, Max): 1.559 ng/mL
- Cmax_D ([1]; via Optineb, Max): 0.069 ng/mL/µg
- T1/2 ([1]; via Optineb, Max): 66.42 min
- Tmax ([1]; via Optineb, Max): 20 min
- Vz_F_obs ([1]; via Optineb, Max): 92051.057 mL
- AUCINF_obs_D (dose normalised AUCI) ([1]; via Optineb, Mean): 0.030 ng·h/mL/µg
- AUClast_D (dose normalised AUCT) ([1]; via Optineb, Mean): 0.029 ng·h/mL/µg
- Cmax_D (dose normalised Cmax) ([1]; via Optineb, Mean): 0.041 ng/mL/µg
- Cmax_D ([1]; via Optineb, Median): 0.037 ng/mL/µg
- Vz_F_obs ([1]; via Optineb, Median): 32525.036 mL
- AUCINF—obs ([1]; via Optineb, Min): 0.360 ng·h/mL
- AUClast ([1]; via Optineb, Min): 0.315 ng·h/mL
- Cmax ([1]; via Optineb, Min): 0.312 ng/mL
- Cmax_D ([1]; via Optineb, Min): 0.017 ng/mL/µg
- T1/2 ([1]; via Optineb, Min): 25.6 min
- Tmax ([1]; via Optineb, Min): 4.98 min
- Vz_F_obs ([1]; via Optineb, Min): 16866.083 mL
- Changes in laboratory parameters ([2]; biochemistry, hematology, urinalysis): no clinically-significant changes
- Serious Adverse Events (SAE's) or Suspected Unexpected Serious Adverse Reactions (SUSAR's) ([2]; both devices): no Serious Adverse Events
- Tolerability in healthy subjects ([2]; for inhalation): well-tolerated
- Changes in laboratory parameters, physical examination, vital signs, respiratory function or ECGs ([2]; human, in vivo): no clinically-significant changes
- Changes in vital signs (blood pressure, pulse and oral temperature) ([2]; human, in vivo, po): no clinically-significant changes
- Number of Subjects (% brackets) with […] ([2]; via AERx Essence): 0
- Number of Subjects (% brackets) with […] ([2]; via Nebu-Tec Optineb): 1 (7.1)
- Number of Subjects with […], relationship POSSIBLE ([2]; via Nebu-Tec Optineb): 0
- Number of Subjects with […], relationship PROBABLE ([2]; via Nebu-Tec Optineb): 0
- Number of Subjects with […], relationship UNLIKELY ([2]; via Nebu-Tec Optineb): 1
